In US20260137710A1, “PHARMACEUTICAL USE OF NUCLEOSIDE COMPOUND” (priority 2022, published 2026):

Tests used:
Vaccinia VP13 = experiment: microbe, parasite or virus in culture; type: cell-based, Vaccinia virus; conditions: for EC50: Orthopoxvirus vaccinia, HFF-1, 96 h
Monkeypox virus = experiment: microbe, parasite or virus in culture; type: cell-based; conditions: for EC50: Monkeypox virus, HFF-1, 96 h
Cowpox virus = experiment: microbe, parasite or virus in culture; type: cell-based; conditions: for EC50: Cowpox virus, HFF-1, 96 h
Smallpox virus = experiment: microbe, parasite or virus in culture; type: cell-based; conditions: for EC50: Variola virus, HFF-1, 96 h
in vitro = conditions: human

SMILES	activity to inhibit vaccinia virus (in words) (Vaccinia VP13)	EC50 (Vaccinia VP13)	activity to inhibit monkeypox virus (in words) (Monkeypox virus)	EC50 (Monkeypox virus)	activity to inhibit cowpox virus (in words) (Cowpox virus)	EC50 (Cowpox virus)	activity to inhibit smallpox virus (in words) (Smallpox virus)	EC50 (Smallpox virus)	CC50 (in vitro)
[N-]=[N+]=NC1(CO)OC(n2ccc(N)nc2=O)C(F)C1O (centres unmarked) [Compound 1, Azvudine]	significant inhibitory effect	570 nM	significant inhibitory effect	320 nM	significant inhibitory effect	750 nM	significant inhibitory effect	1200 nM	> 10000 nM
O=C(NN1C(=O)[C@@H]2[C@@H]3C=C[C@@H]([C@H]4C[C@@H]34)[C@@H]2C1=O)c1ccc(C(F)(F)F)cc1 [ST-246, reference compound]	–	40 nM	–	30 nM	–	50 nM	–	70 nM	> 100000 nM
